Data reported in patent US20210317092A1 (BAYER PHARMA AKTIENGESELLSCHAFT, priority 2016, published 2021).
Read-outs that look alike come from different tables or passages of the source.

Biological target: T1, human Bradykinin B1 receptor (Homo sapiens, UniProt P46663)
T1 construct: host or cells: CHO-K1
T1 sequence (P46663 1-353): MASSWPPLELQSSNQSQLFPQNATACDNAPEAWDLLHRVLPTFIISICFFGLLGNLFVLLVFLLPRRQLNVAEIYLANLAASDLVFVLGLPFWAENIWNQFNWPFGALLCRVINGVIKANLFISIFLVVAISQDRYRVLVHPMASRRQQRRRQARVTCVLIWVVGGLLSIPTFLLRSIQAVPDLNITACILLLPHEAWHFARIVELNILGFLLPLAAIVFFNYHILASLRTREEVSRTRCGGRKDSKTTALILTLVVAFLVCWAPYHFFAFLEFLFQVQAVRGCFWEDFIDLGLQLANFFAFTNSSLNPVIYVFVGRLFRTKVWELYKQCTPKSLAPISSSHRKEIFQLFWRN
Assay: Calcium flux Assay (FLIPR) with recombinant CHO-K1 cells expressing human Bradykinin B1 receptor, in presence (hB1 IC50) or absence (hB1 free IC50) of 0.1% BSA
Assay type: cell-based

[1] = in absence of 0.1% BSA, read-out: hB1 free IC50
[2] = in presence of 0.1% BSA, read-out: hB1 IC50

## Cc1cc(-c2c(F)cc(NC(=O)C3(c4cccc(Cl)c4)CC3)cc2-c2nnn[nH]2)ccn1 [Example 246, 1-(3-chlorophenyl)-N-[3-fluoro-4-(2-methylpyridin-4-yl)-5-(1H-tetrazol-5-yl)phenyl] cyclopropane carboxamide]
[1]
  IC50: 16 nM

## CCOc1ccc(-c2cc(C)c(NC(=O)C3(c4cccc(Cl)c4)CC3)cc2-c2nnn[nH]2)cc1OC [Example 249, 1-(3-Chlorophenyl)-N-[4′-ethoxy-3′-methoxy-5-methyl-2-(1H-tetrazol-5-yl)biphenyl-4-yl]cyclopropane carboxamide]
[2]
  IC50: 1760 nM

## COc1ccc(-c2c(C)cc(NC(=O)C3(c4cccc(Cl)c4)CC3)cc2-c2nnn[nH]2)cc1OC [Example 250, 1-(3-Chlorophenyl)-N-[3′,4′-dimethoxy-2-methyl-6-(1H-tetrazol-5-yl)biphenyl-4-yl]cyclopropane carboxamide]
[2]
  IC50: 240 nM

## O=C(Nc1ccc(-c2cnc(C(F)(F)F)nc2)c(-c2nnn[nH]2)c1)C1(c2ccc(Cl)c(F)c2)CC1 [Example 251, 1-(4-chloro-3-fluorophenyl)-N-{3-(1H-tetrazol-5-yl)-4-[2-(trifluoromethyl)pyrimidin-5-yl]phenyl} cyclopropane-carboxamide]
[1]
  IC50: 227 nM

## O=C(Nc1ccc(-c2cnc(C(F)(F)F)nc2)c(-c2nnn[nH]2)c1)C1(c2ccc(Cl)cc2F)CC1 [Example 252, 1-(4-chloro-2-fluorophenyl)-N-{3-{1H-tetrazol-5-yl)-4-[2-(trifluoromethyl)pyrimidin-5-yl]phenyl} cyclopropane-carboxamide]
[1]
  IC50: 92.8 nM

## CCOc1ccc(-c2ccc(NC(=O)C3(c4cc(F)ccc4C)CC3)cc2-c2nnn[nH]2)cn1 [Example 254, N-[4-(6-ethoxypyridin-3-yl)-3-(1H-tetrazol-5-yl)phenyl]-1-(5-fluoro-2-methylphenyl)cy-clopropanecar-boxamide]
[1]
  IC50: 309 nM
[2]
  IC50: 245 nM

## COc1ccc(-c2ccc(NC(=O)C3(c4cc(F)ccc4C)CC3)cc2-c2nnn[nH]2)cc1OC [Example 255, N-[3′,4′-dimethoxy-2-(1H-tetrazol-5-yl)biphenyl-4-yl]-1-(5-fluoro-2-methylphenyl)cy-clopropanecar-boxamide]
[1]
  IC50: 702 nM
[2]
  IC50: 452 nM

## CCOc1ccc(-c2ccc(NC(=O)C3(c4cccc(F)c4C)CC3)cc2-c2nnn[nH]2)cn1 [Example 256, N-[4-(6-ethoxypyridin-3-yl)-3-(1H-tetrazol-5-yl)phenyl]-1-(3-fluoro-2-methylphenyl)cy-clopropanecar-boxamide]
[1]
  IC50: 288 nM
[2]
  IC50: 274 nM

## COc1ccc(-c2ccc(NC(=O)C3(c4cccc(F)c4C)CC3)cc2-c2nnn[nH]2)cc1OC [Example 257, N-[3′,4′-dimethoxy-2-(1H-tetrazol-5-yl)biphenyl-4-yl]-1-(3-fluoro-2-methylphenyl)cy-clopropanecar-boxamide]
[2]
  IC50: 916 nM

## O=C(Nc1cc(-c2nnn[nH]2)c(-c2ccc(C(F)(F)F)nc2)cc1O)C1(c2cccc(Cl)c2)CC1 [Example 262, 1-(3-chlorophenyl)-N-{2-hydroxy-5-(1H-tetrazol-5-yl)-4-[6-(trifluoromethyl)pyridin-3-yl]phenyl}cyclopro-panecarboxa-mide]
[2]
  IC50: 72.3 nM

## COc1ccc(-c2cc(F)c(NC(=O)C3(c4ccc(Cl)cc4)CC3)cc2-c2nnn[nH]2)cc1OC [Example 264, 1-(4-Chlorophenyl)-N-[5-fluoro-3′,4′-dimethoxy-2-(1H-tetrazol-5-yl)biphenyl-4-yl]cyclopropane carboxamide]
[1]
  IC50: 2330 nM
[2]
  IC50: 834 nM

## O=C(Nc1ccc(-c2ccc(C(F)F)nc2)c(-c2nnn[nH]2)c1)C1(c2ccc(F)cc2)CC1 [Example 268, N-{4-[6-(difluoromethyl)pyridin-3-yl]-3-(1H-tetrazol-5-yl)phenyl}-1-(4-fluorophenyl)cy-cloproapnecarbox-amide]
[1]
  IC50: 92 nM

## O=C(Nc1ccc(-c2ccc(C(F)F)nc2)c(-c2nnn[nH]2)c1)C1(c2ccc(Cl)cc2)CC1 [Example 269, 1-(4-chlorophenyl)-N-{4-[6-(difluoromethyl)pyridin-3-yl]-3-(1H-tetrazol-5-yl)phenyl}cyclopro-panecarboxa-mide]
[1]
  IC50: 13.2 nM

## O=C(Nc1ccc(-c2ccc(C(F)F)nc2)c(-c2nnn[nH]2)c1)C1(c2ccc(C(F)(F)F)cc2)CC1 [Example 270, N-{4-[6-(difluoromethyl)pyridin-3-yl]-3-(1H-tetrazol-5-yl)phenyl}-1-[4-(trifluoromethyl)phenyl]cyclopro-panecarboxamide]
[1]
  IC50: 17.4 nM

## O=C(Nc1ccc(-c2ccc(C(F)F)nc2)c(-c2nnn[nH]2)c1)C1(c2ccc(OC(F)(F)F)cc2)CC1 [Example 271, N-{4-[6-(difluoromethyl)pyridin-3-yl]-3-(1H-tetrazol-5-yl)phenyl}-1-[4-(trifluoromethoxy)phenyl]cyclo-propanecarboxa-mide]
[1]
  IC50: 6.09 nM

## O=C(Nc1ccc(-c2ccc(C(F)F)nc2)c(-c2nnn[nH]2)c1)C1(c2ccc(Cl)c(F)c2)CC1 [Example 272, 1-(4-chloro-3-fluorophenyl)-N-{4-[6-(difluoromethyl)pyridin-3-yl]-3-(1H-tetrazol-5-yl)phenyl}cyclopro-panecarboxa-mide]
[1]
  IC50: 4.72 nM

## O=C(Nc1ccc(-c2ccc(C(F)F)nc2)c(-c2nnn[nH]2)c1)C1(c2ccc(F)cc2F)CC1 [Example 273, N-{4-[6-(difluoromethyl)pyridin-3-yl]-3-(1H-tetrazol-5-yl)phenyl}-1-(2,4-difluorophenyl)cy-clopropanecar-boxamide]
[1]
  IC50: 24.9 nM

## O=C(Nc1ccc(-c2ccc(C(F)F)nc2)c(-c2nnn[nH]2)c1)C1(c2ccc(Cl)cc2F)CC1 [Example 274, 1-(4-chloro-2-fluorophenyl)-N-{4-[6-(difluoromethyl)pyridin-3-yl]-3-(1H-tetrazol-5-yl)phenyl}cyclopro-panecarboxa-mide]
[1]
  IC50: 6.35 nM

## Cc1ccc(C2(C(=O)Nc3ccc(-c4ccc(C(F)F)nc4)c(-c4nnn[nH]4)c3)CC2)c(F)c1 [Example 275, N-{4-[6-(difluoromethyl)pyridin-3-yl]-3-(1H-tetrazol-5-yl)phenyl}-1-(2-fluoro-4-methylphenyl)cy-clopropanecar-boxamide]
[1]
  IC50: 8.48 nM

## O=C(Nc1ccc(-c2ccc(C(F)F)nc2)c(-c2nnn[nH]2)c1)C1(c2ccc(OC(F)(F)F)cc2F)CC1 [Example 276, N-{4-[6-(difluoromethyl)pyridin-3-yl]-3-(1H-tetrazol-5-yl)phenyl}-1-[2-fluoro-4-(trifluoromethoxy)phenyl]cyclo-propanecarboxa-mide]
[1]
  IC50: 1.83 nM

## CC(F)(F)c1ccc(-c2ccc(NC(=O)C3(c4ccc(C(F)(F)F)cc4)CC3)cc2-c2nnn[nH]2)cn1 [Example 277, N-{4-[6-(1,1-difluoroethyl)py-ridin-3-yl]-3-(1H-tetrazol-5-yl)phenyl}-1-[4-(trifluoromethyl)phenyl]cyclopro-panecarboxamide]
[1]
  IC50: 3.19 nM

## CC(F)(F)c1ccc(-c2ccc(NC(=O)C3(c4ccc(OC(F)(F)F)cc4)CC3)cc2-c2nnn[nH]2)cn1 [Example 278, N-{4-[6-(1,1-difluroethyl)py-ridin-3-yl]-3-(1H-tetrazol-5-yl)phenyl}-1-[4-(trifluoromethoxy)phenyl]cyclo-propanecarboxa-mide]
[1]
  IC50: 3.62 nM

## Cc1ccc(C2(C(=O)Nc3ccc(-c4ccc(C(C)(F)F)nc4)c(-c4nnn[nH]4)c3)CC2)c(F)c1 [Example 280, N-{4-[6-(1,1-difluoroethyl)py-ridin-3-yl]-3-(1H-tetrazol-5-yl)phenyl}-1-(2-fluoro-4-methylphenyl)cy-clopropanecar-boxamide]
[1]
  IC50: 11.3 nM

## CC(F)(F)c1ccc(-c2ccc(NC(=O)C3(c4ccc(OC(F)(F)F)cc4F)CC3)cc2-c2nnn[nH]2)cn1 [Example 282, N-{4-[6-(1,1-difluoroethyl)py-ridin-3-yl]-3-(1H-tetrazol-5-yl)phenyl}-1-[2-fluoro-4-(trifluoromethoxy)phenyl]cyclo-propanecarboxa-mide]
[1]
  IC50: 3.49 nM

## CCC(F)(F)c1ccc(-c2ccc(NC(=O)C3(c4cccc(Cl)c4)CC3)cc2-c2nnn[nH]2)cn1 [Example 283, 1-(3-chlorophenyl)-N-{4-[6-(1,1-difluoropropyl)py-ridin-3-yl]-3-(1H-tetrazol-5-yl)phenyl}cyclopro-panecarboxa-mide]
[1]
  IC50: 8.19 nM

## CCC(F)(F)c1ccc(-c2ccc(NC(=O)C3(c4ccc(F)c(F)c4)CC3)cc2-c2nnn[nH]2)cn1 [Example 284, 1-(3,4-difluorophenyl)-N-{4-[6-(1,1-difluoropropyl)py-ridin-3-yl]-3-(1H-tetrazol-5-yl)phenyl}cyclopro-panecarboxa-mide]
[1]
  IC50: 15.3 nM

## CCC(F)(F)c1ccc(-c2ccc(NC(=O)C3(c4ccc(C)cc4F)CC3)cc2-c2nnn[nH]2)cn1 [Example 285, N-{4-[6-(1,1-difluoropropyl)py-ridin-3-yl]-3-(1H-tetrazol-5-yl)phenyl}-1-(2-fluoro-4-methylphenyl)cy-clopropanecar-boxamide]
[1]
  IC50: 15.8 nM

## CCC(F)(F)c1ccc(-c2ccc(NC(=O)C3(c4ccc(C(F)(F)F)cc4F)CC3)cc2-c2nnn[nH]2)cn1 [Example 286, N-{4-[6-(1,1-difluoropropyl)py-ridin-3-yl]-3-(1H-tetrazol-5-yl)phenyl}-1-[2-fluoro-4-(trifluoromethyl)phenyl]cyclopro-panecarboxamide]
[1]
  IC50: 4.34 nM

## CCC(F)(F)c1ccc(-c2ccc(NC(=O)C3(c4ccc(OC(F)(F)F)cc4F)CC3)cc2-c2nnn[nH]2)cn1 [Example 287, N-{4-[6-(1,1-difluoropropyl)py-ridin-3-yl]-3-(1H-tetrazol-5-yl)phenyl}-1-[2-fluoro-4-(trifluoromethoxy)phenyl]cyclo-propanecarboxa-mide]
[1]
  IC50: 3.93 nM
